# Patent US20230202973A1, “BARNESIN A, DERIVATIVES AND USES THEREOF” (Leibniz-Institut Für Naturstoff-Forschung Und …, priority 2018, published 2023)
# Type: in vitro ADME
# Conditions: 0 min, pH 7.4
# Description: The liver is the main organ of drug metabolism in the body. Subcellular fractions such as liver microsomes are useful in vitro models of hepatic clearance as they contain many of the drug metabolising enzymes found in the liver. Liver microsomes are subcellular fractions which contain membrane bound drug metabolising enzymes. The microsomes are incubated with the test compound at 37° C. in the presence of the co-factors, which initiates the reaction. The reaction is terminated by the addition of organic solvents containing internal standard. Following centrifugation, the supernatant is analysed on the LC-MS/MS. The disappearance of test compound is monitored over certain time period. Here, a microsome stability assay was used to investigate the metabolism of the compounds; using this assay it is possible to measure in vitro the intrinsic clearance or to identify metabolites formed. For a standard assay the following solutions were used: 360 μL Microsomal solution (1.1 mg/mL in phosphate buffer), 360 μL NADP-regeneration mix (containing NADP (10 mM), MgCl2 (50 mM), glucose-6-phosphate (50 mM), glucose-6-phosphate dehydrogenase (50 U/ml)) and 40 μL phosphate buffer (100 mM, pH 7.4). […] 5 uL of each sample was injected to a UPLC/HRMS system and the peak areas of the extracted ion chromatograms were determined
structure (smiles),measurement,value
"O=C(O)Cc1ccccc1Nc1c(Cl)cccc1Cl [Diclo, Diclofenac]","Area rel. [%], PC",100.0%
